Experimental data published in PubChem BioAssay (NCI).
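Protocol summary: plate cells (96-well), add compound at 5 concentrations, incubate 48 h, interpolate endpoints linearly. Abbreviation: GI50, concentration required for 50% inhibition of growth. Definition used: TGI = concentration required for complete inhibition of growth.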

Key:
Assay in all cases: NCI tumour cell line growth inhibition, 48 h
M14 melanoma = test system: M14 melanoma
MOLT-4 leukemia = test system: MOLT-4 leukemia
HL-60(TB) leukemia = test system: HL-60(TB) leukemia
SR leukemia = test system: SR leukemia
SK-MEL-2 melanoma = test system: SK-MEL-2 melanoma
LOX IMVI melanoma = test system: LOX IMVI melanoma
A549 NSCLC = test system: A549 NSCLC
U251 CNS = test system: U251 CNS
NCI-H460 lung = test system: NCI-H460 lung
SNB-75 CNS = test system: SNB-75 CNS
NCI/ADR-RES ovarian = test system: NCI/ADR-RES ovarian
MALME-3M melanoma = test system: MALME-3M melanoma
HOP-62 NSCLC = test system: HOP-62 NSCLC
NCI-H226 lung = test system: NCI-H226 lung
K-562 leukemia = test system: K-562 leukemia
HCC-2998 colon = test system: HCC-2998 colon
SN12C renal = test system: SN12C renal
CAKI-1 renal = test system: CAKI-1 renal
HT29 colon = test system: HT29 colon
T-47D breast = test system: T-47D breast
UACC-257 melanoma = test system: UACC-257 melanoma
SNB-19 CNS = test system: SNB-19 CNS
HOP-92 NSCLC = test system: HOP-92 NSCLC
HCT-116 colon = test system: HCT-116 colon
CCRF-CEM leukemia = test system: CCRF-CEM leukemia
UACC-62 melanoma = test system: UACC-62 melanoma
PC-3 prostate = test system: PC-3 prostate
SF-539 CNS = test system: SF-539 CNS
SW-620 colon = test system: SW-620 colon
TK-10 renal = test system: TK-10 renal
786-0 renal = test system: 786-0 renal
ACHN renal = test system: ACHN renal
RXF 393 renal = test system: RXF 393 renal
MCF7 breast = test system: MCF7 breast
RPMI-8226 leukemia = test system: RPMI-8226 leukemia
KM12 colon = test system: KM12 colon
NCI-H522 lung = test system: NCI-H522 lung
SF-268 CNS = test system: SF-268 CNS
OVCAR-3 ovarian = test system: OVCAR-3 ovarian
A498 renal = test system: A498 renal
SK-MEL-5 melanoma = test system: SK-MEL-5 melanoma
SK-MEL-28 melanoma = test system: SK-MEL-28 melanoma
MDA-MB-231 breast = test system: MDA-MB-231 breast
NCI-H23 lung = test system: NCI-H23 lung
COLO 205 colon = test system: COLO 205 colon
HS 578T breast = test system: HS 578T breast
SF-295 CNS = test system: SF-295 CNS
EKVX NSCLC = test system: EKVX NSCLC
SK-OV-3 ovarian = test system: SK-OV-3 ovarian
DU-145 prostate = test system: DU-145 prostate
OVCAR-8 ovarian = test system: OVCAR-8 ovarian
OVCAR-4 ovarian = test system: OVCAR-4 ovarian
HCT-15 colon = test system: HCT-15 colon
IGROV1 ovarian = test system: IGROV1 ovarian
MDA-MB-435 = test system: MDA-MB-435
OVCAR-5 ovarian = test system: OVCAR-5 ovarian
BT-549 breast = test system: BT-549 breast
UO-31 renal = test system: UO-31 renal

Structure (SMILES): O=C1C(Cl)=C(N2CCN(CCOCCO)CC2)C(=O)c2ncccc21
- TGI (M14 melanoma): > 10 µM
- TGI (MOLT-4 leukemia): > 10 µM
- TGI (HL-60(TB) leukemia): > 10 µM
- TGI (SR leukemia): > 10 µM
- TGI (SK-MEL-2 melanoma): > 10 µM
- TGI (LOX IMVI melanoma): > 10 µM
- TGI (A549 NSCLC): > 10 µM
- TGI (U251 CNS): > 10 µM
- TGI (NCI-H460 lung): > 10 µM
- TGI (SNB-75 CNS): > 10 µM
- TGI (NCI/ADR-RES ovarian): > 10 µM
- TGI (MALME-3M melanoma): > 10 µM
- TGI (HOP-62 NSCLC): > 10 µM
- TGI (NCI-H226 lung): > 10 µM
- TGI (K-562 leukemia): > 10 µM
- TGI (HCC-2998 colon): > 10 µM
- TGI (SN12C renal): > 10 µM
- TGI (CAKI-1 renal): > 10 µM
- TGI (HT29 colon): > 10 µM
- TGI (T-47D breast): 5.51 µM
- TGI (UACC-257 melanoma): > 10 µM
- TGI (SNB-19 CNS): > 10 µM
- TGI (HOP-92 NSCLC): 3.29 µM
- TGI (HCT-116 colon): > 10 µM
- TGI (CCRF-CEM leukemia): > 10 µM
- TGI (UACC-62 melanoma): > 10 µM
- TGI (PC-3 prostate): > 10 µM
- TGI (SF-539 CNS): > 10 µM
- TGI (SW-620 colon): > 10 µM
- TGI (TK-10 renal): > 10 µM
- TGI (786-0 renal): > 10 µM
- TGI (ACHN renal): > 10 µM
- TGI (RXF 393 renal): 9.68 µM
- TGI (MCF7 breast): > 10 µM
- TGI (RPMI-8226 leukemia): > 10 µM
- TGI (KM12 colon): > 10 µM
- TGI (NCI-H522 lung): 6.33 µM
- TGI (SF-268 CNS): > 10 µM
- TGI (OVCAR-3 ovarian): > 10 µM
- TGI (A498 renal): > 10 µM
- TGI (SK-MEL-5 melanoma): > 10 µM
- TGI (SK-MEL-28 melanoma): > 10 µM
- TGI (MDA-MB-231 breast): > 10 µM
- TGI (NCI-H23 lung): > 10 µM
- TGI (COLO 205 colon): > 10 µM
- TGI (HS 578T breast): > 10 µM
- TGI (SF-295 CNS): > 10 µM
- TGI (EKVX NSCLC): > 10 µM
- TGI (SK-OV-3 ovarian): > 10 µM
- TGI (DU-145 prostate): > 10 µM
- TGI (OVCAR-8 ovarian): > 10 µM
- TGI (OVCAR-4 ovarian): > 10 µM
- TGI (HCT-15 colon): > 10 µM
- TGI (IGROV1 ovarian): > 10 µM
- TGI (MDA-MB-435): 7.05 µM
- TGI (OVCAR-5 ovarian): > 10 µM
- TGI (BT-549 breast): > 10 µM

Structure (SMILES): Nc1nonc1C(=Nc1ccc(F)c(Cl)c1)NO
- GI50 (M14 melanoma): 51.9 µM
- TGI (M14 melanoma): > 100 µM
- GI50 (MOLT-4 leukemia): 43.4 µM
- TGI (MOLT-4 leukemia): > 100 µM
- GI50 (HL-60(TB) leukemia): 62.8 µM
- TGI (HL-60(TB) leukemia): > 100 µM
- GI50 (SR leukemia): > 63.2 µM
- TGI (SR leukemia): > 100 µM
- GI50 (SK-MEL-2 melanoma): 65 µM
- TGI (SK-MEL-2 melanoma): > 100 µM
- GI50 (LOX IMVI melanoma): 40 µM
- TGI (LOX IMVI melanoma): > 100 µM
- GI50 (A549 NSCLC): > 66 µM
- TGI (A549 NSCLC): > 100 µM
- GI50 (U251 CNS): > 75.7 µM
- TGI (U251 CNS): > 100 µM
- GI50 (NCI-H460 lung): > 93.2 µM
- TGI (NCI-H460 lung): > 100 µM
- GI50 (SNB-75 CNS): 14.2 µM
- TGI (SNB-75 CNS): 76.5 µM
- GI50 (NCI/ADR-RES ovarian): 49.2 µM
- TGI (NCI/ADR-RES ovarian): > 100 µM
- GI50 (MALME-3M melanoma): 95.2 µM
- TGI (MALME-3M melanoma): > 100 µM
- GI50 (HOP-62 NSCLC): 28 µM
- TGI (HOP-62 NSCLC): > 100 µM
- GI50 (NCI-H226 lung): 68 µM
- TGI (NCI-H226 lung): > 100 µM
- GI50 (K-562 leukemia): 58.8 µM
- TGI (K-562 leukemia): > 100 µM
- GI50 (HCC-2998 colon): > 91.5 µM
- TGI (HCC-2998 colon): > 100 µM
- GI50 (SN12C renal): 45.8 µM
- TGI (SN12C renal): > 100 µM
- GI50 (CAKI-1 renal): 28.8 µM
- TGI (CAKI-1 renal): > 100 µM
- GI50 (HT29 colon): > 100 µM
- TGI (HT29 colon): > 100 µM
- GI50 (T-47D breast): 20.4 µM
- TGI (T-47D breast): > 100 µM
- GI50 (SNB-19 CNS): > 94.2 µM
- TGI (SNB-19 CNS): > 100 µM
- GI50 (HOP-92 NSCLC): 12.6 µM
- TGI (HOP-92 NSCLC): 54.9 µM
- GI50 (HCT-116 colon): 51.5 µM
- TGI (HCT-116 colon): > 100 µM
- GI50 (CCRF-CEM leukemia): 98.3 µM
- TGI (CCRF-CEM leukemia): > 100 µM
- GI50 (UACC-62 melanoma): 29.8 µM
- TGI (UACC-62 melanoma): > 100 µM
- GI50 (PC-3 prostate): 42.4 µM
- TGI (PC-3 prostate): > 100 µM
- GI50 (SF-539 CNS): 54.2 µM
- TGI (SF-539 CNS): > 100 µM
- GI50 (SW-620 colon): > 100 µM
- TGI (SW-620 colon): > 100 µM
- GI50 (TK-10 renal): 55.9 µM
- TGI (TK-10 renal): > 100 µM
- GI50 (786-0 renal): 63.3 µM
- TGI (786-0 renal): > 100 µM
- GI50 (ACHN renal): 32.7 µM
- TGI (ACHN renal): > 100 µM
- GI50 (RXF 393 renal): 33.6 µM
- TGI (RXF 393 renal): > 100 µM
- GI50 (MCF7 breast): 41.6 µM
- TGI (MCF7 breast): > 100 µM
- GI50 (RPMI-8226 leukemia): 42.3 µM
- TGI (RPMI-8226 leukemia): > 100 µM
- GI50 (KM12 colon): 79 µM
- TGI (KM12 colon): > 100 µM
- GI50 (NCI-H522 lung): > 47.1 µM
- TGI (NCI-H522 lung): > 100 µM
- GI50 (SF-268 CNS): 39.4 µM
- TGI (SF-268 CNS): > 100 µM
- GI50 (OVCAR-3 ovarian): 43.1 µM
- TGI (OVCAR-3 ovarian): > 100 µM
- GI50 (A498 renal): 21.1 µM
- TGI (A498 renal): > 86.9 µM
- GI50 (SK-MEL-5 melanoma): 41.4 µM
- TGI (SK-MEL-5 melanoma): > 100 µM
- GI50 (SK-MEL-28 melanoma): > 100 µM
- TGI (SK-MEL-28 melanoma): > 100 µM
- GI50 (MDA-MB-231 breast): 29.7 µM
- TGI (MDA-MB-231 breast): > 100 µM
- GI50 (NCI-H23 lung): 46.6 µM
- TGI (NCI-H23 lung): > 100 µM
- GI50 (COLO 205 colon): 60.5 µM
- TGI (COLO 205 colon): > 100 µM
- GI50 (HS 578T breast): 49.5 µM
- TGI (HS 578T breast): > 100 µM
- GI50 (SF-295 CNS): 37.9 µM
- TGI (SF-295 CNS): > 100 µM
- GI50 (EKVX NSCLC): 25.1 µM
- TGI (EKVX NSCLC): > 100 µM
- GI50 (SK-OV-3 ovarian): 49.3 µM
- TGI (SK-OV-3 ovarian): > 100 µM
- GI50 (DU-145 prostate): 63.7 µM
- TGI (DU-145 prostate): > 100 µM
- GI50 (OVCAR-8 ovarian): 71.1 µM
- TGI (OVCAR-8 ovarian): > 100 µM
- GI50 (OVCAR-4 ovarian): 25.3 µM
- TGI (OVCAR-4 ovarian): > 100 µM
- GI50 (HCT-15 colon): 47.3 µM
- TGI (HCT-15 colon): > 100 µM
- GI50 (IGROV1 ovarian): 28.9 µM
- TGI (IGROV1 ovarian): > 100 µM
- GI50 (MDA-MB-435): > 88.4 µM
- TGI (MDA-MB-435): > 100 µM
- GI50 (UO-31 renal): 12.6 µM
- TGI (UO-31 renal): 97.5 µM
- GI50 (OVCAR-5 ovarian): 53.2 µM
- TGI (OVCAR-5 ovarian): > 100 µM
- GI50 (BT-549 breast): 29.8 µM
- TGI (BT-549 breast): > 100 µM
